Structures are written as SMILES.

Data on 1 compound can be found in patent US20030162187A1, “Method of detecting sexual differentiation disruptor” (priority 1999, published 2003).

This experiment concerns Qurt medaka. As to the kind of experiment: Detection of sexual differentiation-disrupting activity: eggs bred in test solution, genotypic sex by pigment, phenotypic sex by RT-PCR of female-specific Gene 5. The format is in vivo, medaka (Oryzias latipes). The following applies: fries hatched from eggs treated with 1 ppb 17 β-estradiol. As to the method: Pairs of mature Qurt medakas each consisting of one male and one female were bred in 3 L of green water (purified water containing chlorella from green algae) at 25° C. under conditions of a light period for 14 hours and a dark period for 10 hours. They were fed with TetraMin three to five times a day setting the amount of TetraMin such that it was consumed within three to five minutes,;and then spawned. Eggs resulted from five pairs were placed in a Petri dish immediately after spawning, separated each other using tweezers in tap water from which chlorine had been removed and washed. The water was replaced by a 1 -ppb 17 β-estradiol (E2) aqueous solution containing 0.1% dimethyl sulfoxide. The mixture was dispensed into wells of 96-well round bottom microplate (#3797, Corning) which had been extensively washed with ultrapure water such that each well contained one egg. After covering with a lid, the microplate was incubated in an incubator at 25° C. On the third day from the start of incubation, males and females were distinguished by examining the yellow pigment which is expressed in a male-specific manner as autofluorescence using a fluorescence microscope (Nikon) The incubation was further continued, and fries then hatched on the 7th to 9th day after spawning. Fries were collected on the 12th day after spawning (the 3rd to 5th day after hatching), then soaked in RNAlater (#7021, Ambion) and stored at −80° C. RNAs were extracted from the fries using StrataPrep Total RNA Miniprep Kit (#400711, Stratagene). The test samples were soaked in a lysis solution attached to the kit, and homogenized in 1.5 -mL tubes using a pellet mixer (Urin Seisakusho). Then, extraction was completed according to the manual attached to the kit. The extracted RNAs were subjected to TaKaRa One Step RNA PCR Kit (AMV) (Takara Shuzo). 1st PCRs were carried out using a pair of primers F1 (SEQ ID NO: 30) and R1 (SEQ ID NO: 31) which is used to amplify a region of 729 bp in Gene 5 (SEQ ID NO: 5), a gene expressed in a female-specific manner. […]

As for `C[C@]12CC[C@@H]3c4ccc(O)cc4CC[C@H]3[C@@H]1CC[C@@H]2O` [17 β-estradiol], the “genotypic females for which expression of Gene 6 was not observed” value was “two out of the five”, the “genotypic males for which expression of Gene 5 was observed” value was “two out of the five” and the “sexual differentiation (genotypic vs phenotypic sex)” value was “the sexual differentiation was disrupted”.
